According to US20140286906A1, “USE OF IGF-1 IN THE MODULATION OF TREG CELL ACTIVITY AND THE TREATMENT AND PREVENTION OF AUTOIMMUNE DISORDERS OR DISEASES” (priority 2011, published 2014):
Like-named read-outs stand apart in the source and are kept apart here.

Experiments:
[1] = tested on: T effector cell proliferation; assay: in vitro suppression of T effector cell proliferation by IGF-1 treated Tregs; format: cell-based; settings: antigen presenting cells and soluble anti-CD3; Treg:Teff 1:2 to 1:64
EAE = settings: i.v. 600 μg/day for six days (Liu et al. 1997); cited from earlier work
STZ induced diabetes = assay: streptozotocin (STZ) induced autoimmune diabetes, systemic rhIGF-1 delivery; format: in vivo, mice
Excerpt: Regarding the functional assay for diabetes a protocol that measures the clearance of a standardized glucose load from the body after intraperitoneal injection was used (intraperitoneal glucose tolerance test, see Heikkinen et al. (2007)).
Beta-cells sense glucose levels and release insulin to maintain physiologic glucose levels within a relatively narrow range. Destruction of beta-cells by the immune system is correlated with the inability to control glucose levels (measured by the glucose tolerance test). Another way to assess whether IGF-1 stimulates proliferation and/or recruitment of regulatory T cells to the damaged tissues is by determining the number of FOXP3 expressing cells per unit area in the affected tissues by immunohistochemistry.
Shortly, single cell suspensions are prepared from the […] and spinal cord. The resulting cells are stained with anti-CD4 antibodies and separated using fluorescent-activated cell sorting. RNA is then extracted and purified and serves as a template for a quantitative RT-PCR reaction with Taqman probes. Finally, the relative amount of each mRNA compared to a house-keeping gene (Hprt) is determined.
An accepted model of experimental autoimmune diabetes in mice is the induction of diabetes by multiple injections of a low dose of streptozotocin (STZ). STZ causes diabetes by direct beta cell cytotoxicity as well as by initiation of T cell-mediated autoimmune attack of β-cells (O'Brian et al., 1996). Using this model the inventors examined if systemic delivery of rhIGF-1 could prevent autoimmune diabetes in the early stages of the disease. […] The inventors therefore addressed the effects of IGF-1 […] and sixty-one days after the treatment was stopped.
First the inventors examined the ability of CsA to suppress IGF-1 activity in vitro. […] Then the inventors tested whether CsA treatment in vivo could also impair IGF-1 protective effect at early stages of the disease. A GTT was performed three weeks from the first STZ injection.

[2] = tested on: experimental autoimmune encephalomyelitis (EAE); settings: cited from earlier work
[3] = mouse, in vivo
CD4+CD25+ splenic cells = assay: flow cytometry of activation and homing markers on CD4+CD25+ splenic cells; format: cell-based, murine; settings: after IGF-1 treatment in vitro
Excerpt: The expression of certain markers on the surface of the cell is correlated with the degree of activation of the cells and also controls their trafficking and localization and consequently the compartmentalization of the immune responses. This is again measured using flow cytometric methods. For example, cells expressing high levels of CD62L preferentially migrate to secondary lymphoid tissues. However, as these cells enter the periphery (for example when they travel to affected tissues during an autoimmune process) they rapidly acquire an activated phenotype and express higher levels of CD44. Thus upregulation of CD44 is associated with a higher proliferation rate. […] The importance of this observation comes from the fact that in order to exert their suppressive properties, Tregs need to migrate to the affected tissues first. Therefore, IGF-1 not only induces activation of proliferation but also promotes their correct localization.
Finally, the inventors analyzed the ability of IGF-1 to alter the homing properties of the regulatory T cell subset. In 2003, Fisson et al. defined two distinct population of regulatory T cells in homeostatic conditions. In the steady state, some Tregs remain quiescent for long periods of time, whereas the other Treg population divides extensively and express multiple activation markers. […] This pattern of change is also consistent with a more activated phenotype. On one hand, CD44^hiCD62L^lo Treg populations, but not their CD44^loCD62L^hi counterparts, constantly incorporate BrdU, a synthetic analog of thymidine, into newly synthesized DNA in lymphoid tissues (Matsushima and Takashima, 2010). On the other hand, higher levels of CD62L have been associated with a higher capacity of Tregs to migrate to the lymph nodes, while lower levels allows them to migrate to sites of inflammation (Fisson et al., 2003; Bromley et al., 2008). Thus, T regulatory cells expressing lower levels of CD62L would have a higher inflammation-seeking capacity, which has been associated with higher suppressive potential in various inflammation models (Huehn et al., 2005). […] One, IGF-1 is able to activate a complex pathway resulting in Treg activation leading to proliferation and to selective homing and migration to the sites of inflammation. The second conclusion comes from the observation that sequential migration from blood to the target tissue and then to draining lymph nodes is required for nTreg to differentiate and execute fully their suppressive function, by inhibiting dendritic cells in the peripheral tissue and T effector cell responses in dLN and periphery (Zhang et al., 2009). Thus, IGF-1 treatment not only results in higher numbers of T regulatory cells but also in altering the trafficking of these cells to achieve a higher suppressive effect. […]

[4] = tested on: CD4+CD25- cells (T conventional cells); assay: Annexin V / living dye apoptosis flow cytometry, CD4+CD25- cells; format: cell-based, murine
Excerpt: The effects of IGF-1 on apoptosis can be measured by flow cytometry. By using a combination of a living dye and Annexin V staining it is possible to determine four different cell populations which correspond to non-apoptotic, necrotic, early and late apoptosis.
Initially, and in order to characterize the in vitro effects of IGF-1 on the different populations of the […] immune system, murine splenic CD4 positive cells were sorted by FACS based on the expression of CD25. This allows for the separation and enrichment of conventional T cells (CD25 negative) and regulatory T cells (CD25 positive). […] To exclude the possibility that the observed expansion was due to the anti-apoptotic properties of IGF-1, the cells in culture were stained with AnnexinV (a marker of apoptosis) and a vital dye, and then analyzed by flow cytometry.

Insulin-like growth factor-1 [IGF-1]
ability of Treg cells to suppress T effector cell proliferation after treatment [1]: retain their ability to suppress T effector cell proliferation
number of infiltrating T cells and macrophages (EAE): reduction
ratio of CD4:Foxp3 positive cells in the spleen (STZ induced diabetes; IGF-1 treatment, P=0.004): decreased
Foxp3 mRNA in pancreatic CD4 positive cells (STZ induced diabetes; RT-PCR seven weeks after disease induction, beyond treatment): higher expression
cell mass and architecture of insulin-producing pancreatic islands (insulin staining) (STZ induced diabetes; day ninety-seven after first STZ injection): long-lasting protective effects
density of T regulatory cells in pancreas (Foxp3 staining) (STZ induced diabetes; day ninety-seven after first STZ injection, P=0.0159): higher density of T regulatory cells
glucose control in untreated (non-diabetic) mice (STZ induced diabetes; mice without STZ): no effect
glucose homeostasis (GTT AUC) after end of treatment (STZ induced diabetes; nice and sixty-one days after treatment was stopped, P37d=0.016, P89d=0.036): long-term improved glucose homeostasis
blood glucose in glucose tolerance test (GTT) (STZ induced diabetes; three weeks from first STZ injection, four weeks after pump implantation): lower glucose levels
course of EAE ([2]; 10 mg/kg per day given after disease onset (Lovett-Racke et al.)): did not significantly alter the course of disease
course of EAE ([2]; 10 mg/kg per day given before disease onset (Lovett-Racke et al.)): mild protection
clinical course of EAE ([2]; administration during the acute phase (Cannella et al.)): some transient clinical amelioration
clinical course of EAE ([2]; chronic phase (Cannella et al.)): no effect
tumors at necropsy [3]: never found tumors
CD44 surface expression (CD4+CD25+ splenic cells): upregulated
CD62L surface expression (CD4+CD25+ splenic cells): down
CD71 surface expression (CD4+CD25+ splenic cells): upregulated
protection from apoptosis [4]: partially protected from apoptosis
